Tests used:
Format in all cases: cell-based
[1] = biological target: T1, M1 muscarinic receptor (Homo sapiens, UniProt P11229); assay: Functional mobilization of intracellular calcium (FLIPR), M1-CHO cells; conditions: for Emax: 100% efficacy is the maximum response obtained with the Carbachol control; for M1 Activity: CHO cells expressing M1, calcium mobilization
T1 construct: expressed in transfected cells; host or cells: CHO (M1-CHO)
T1 sequence (P11229 1-460): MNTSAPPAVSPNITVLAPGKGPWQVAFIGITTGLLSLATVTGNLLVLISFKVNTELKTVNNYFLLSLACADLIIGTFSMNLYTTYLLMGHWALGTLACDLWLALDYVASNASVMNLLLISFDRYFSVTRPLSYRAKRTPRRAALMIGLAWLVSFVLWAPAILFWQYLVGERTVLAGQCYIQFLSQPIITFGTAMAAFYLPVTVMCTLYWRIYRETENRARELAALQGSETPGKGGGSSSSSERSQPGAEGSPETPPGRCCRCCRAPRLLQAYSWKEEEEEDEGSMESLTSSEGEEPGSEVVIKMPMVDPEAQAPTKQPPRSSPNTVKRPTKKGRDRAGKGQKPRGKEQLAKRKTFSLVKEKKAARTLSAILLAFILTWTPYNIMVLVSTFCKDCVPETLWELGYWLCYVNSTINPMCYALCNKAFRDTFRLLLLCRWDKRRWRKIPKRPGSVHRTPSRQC
Experimental: (§1) Functional Mobilization of Intracellular Calcium to Determine Muscarinic Receptor Activity:
(§2) CHO cells expressing muscarinic receptors (M1 to M5) are grown as monolayers in tissue culture flasks at 37° C. in a humidified atmosphere containing 5% CO2 and passaged every 3-5 days. The growth media is Dulbecco's modified eagles medium (DMEM, Gibco Cat# 12430-054), containing 25 mM Hepes and supplemented with Fetal Bovine Serum (Hyclone, cat# SH30071.03), 0.1 mM of MEM non-essential amino acids (GIBCO, Cat# 11140-050), 1 mM MEM Sodium Pyruvate (GIBCO Cat# 11360-070) and 100 units/ml of Penicillin G and 100 μg/ml of Streptomycin (GIBCO Cat# 15140-122). The recombinant muscarinic receptor cell lines are grown under antibiotic pressure with media containing 25 μg/ml zeocin and 500 μg/ml G418 (M1-CHO), 4 μg/ml puromycin, 50 μg/ml zeocin and 2.5 μg/ml blasticidin (M2 and M4-CHO) or 50 μg/ml zeocin and 4 μg/ml puromycin (M3 and M5-CHO).
(§3) Cells are harvested at 80-90% confluence using Versene (GIBCO Cat# 15040-066), collected by centrifugation and seeded 18-24 hours prior to running the calcium assay at a density of 5,000-10,000 cells/well in […], clear-bottomed 384-well plates (BD Biocoat, poly-D-lysine, Cat#356663). The day of the experiment, the cells are washed with a plate washer (Bioteck Instruments, ELX 405) using Bath 1 buffer (140-mM NaCl, 4.5-mM KCl, 2-mM CaCl2, 1-mM MgCl2, 10-mM Hepes-Na, 10-mM Glucose, pH 7.4, with NaOH) containing 1 mM Probenecid. Next, the calcium dye Fluo-3 (25 μl/well of Fluo-3 AM at 4 μM, Molecular Probes F-1241, in Bath 1 buffer containing 1 mM Probenecid) is added to the 25 μl of Bath 1 remaining in each well after the plate wash and the dye is loaded at 37° C. in the tissue culture incubator for 60-90 min. The fluorescent dye is removed using the plate washer with Bath 1 containing 1 mM Probenecid, leaving 25 μl/well of this solution after the wash. Alternatively, cells can be loaded with the calcium indicator from Molecular Devices (Calcium 3 Assay Reagents, Cat # R7181) adding 5 μl of a 5× solution dye in Bath 1 containing 1 mM Probenecid (10 ml per dye flask cat# R7182 to generate a solution 20×) to 20 μl of the same buffer. After loading for 60 min, the experiment can be run without having to remove the dye.
(§4) Compounds are prepared at a 2× fold concentration in a 96-well plate (round bottom, Costar Corning cat# 3656), by reconstituting the pre-spotted compounds in bath 1 containing 1 mM probenecid. The final concentration DMSO is 0.5%, and the amount of DMSO is normalized across the assay plate. To determine an agonist action of the compounds on muscarinic receptors, the reconstituted compounds are added (25 μl compound/well) to the cell assay plate (containing 25 μl/well) using the multi-channel robotic system of the FLIPR 3 Instrument (Molecular Devices, Sunnyvale, Calif.). To determine a functional inhibitory action of the compounds on muscarinic receptors, the reconstituted compounds are added (25 μl compound/well) to the assay plate and pre-incubated for 15 min prior to adding 25 μl of Carbachol at 3× the EC80 for each muscarinic subtype. Alternatively, the compounds can be co-applied simultaneously with the agonist. In both assay modes, the fluorescence is recorded for 60 sec (excitation wavelength is […] and emission wavelength 540 nm) using the FLIPR 3 instrument.
(§5) The potency, efficacy and selectivity of the muscarinic compounds were evaluated by screening the compound activity across the whole family (M1 to M5 cells). Compounds were also screened for activity on other proteins such as other GPCRs and ion channels to determine selectivity on M4 receptors.
(§6) Examples of activities and efficacies of the muscarinic compounds of formulae (I, Ia, Ib, Ic, and Id) on modulating M1 and M4 receptors are shown below in Table 3. […]

[2] = biological target: T2, M2 muscarinic receptor (Homo sapiens, UniProt P08172); assay: Functional mobilization of intracellular calcium (FLIPR), M2-CHO cells; conditions: for Emax: 100% efficacy is the maximum response obtained with the Carbachol control; for M2 Activity: CHO cells expressing M2, calcium mobilization
T2 construct: expressed in transfected cells; host or cells: CHO (M2-CHO)
T2 sequence (P08172 1-466): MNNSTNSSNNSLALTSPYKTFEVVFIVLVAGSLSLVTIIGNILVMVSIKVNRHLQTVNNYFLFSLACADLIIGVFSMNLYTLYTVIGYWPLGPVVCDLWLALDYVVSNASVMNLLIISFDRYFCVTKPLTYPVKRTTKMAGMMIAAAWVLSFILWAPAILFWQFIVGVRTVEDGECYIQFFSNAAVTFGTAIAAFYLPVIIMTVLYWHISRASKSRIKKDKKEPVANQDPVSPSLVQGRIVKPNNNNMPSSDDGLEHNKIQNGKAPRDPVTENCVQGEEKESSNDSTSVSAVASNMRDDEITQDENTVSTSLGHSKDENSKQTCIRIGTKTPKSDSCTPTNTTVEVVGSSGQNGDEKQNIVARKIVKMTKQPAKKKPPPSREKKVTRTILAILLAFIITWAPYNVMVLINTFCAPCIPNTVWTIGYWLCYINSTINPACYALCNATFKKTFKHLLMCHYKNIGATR
Experimental: as §1, §2, §3, §4, §5, §6

[3] = biological target: T3, M4 muscarinic receptor (Homo sapiens, UniProt P08173); assay: Functional mobilization of intracellular calcium (FLIPR), M4-CHO cells; conditions: for Emax: 100% efficacy is the maximum response obtained with the Carbachol control; for M4 Activity: CHO cells expressing M4, calcium mobilization
T3 construct: expressed in transfected cells; host or cells: CHO (M4-CHO)
T3 sequence (P08173 1-479): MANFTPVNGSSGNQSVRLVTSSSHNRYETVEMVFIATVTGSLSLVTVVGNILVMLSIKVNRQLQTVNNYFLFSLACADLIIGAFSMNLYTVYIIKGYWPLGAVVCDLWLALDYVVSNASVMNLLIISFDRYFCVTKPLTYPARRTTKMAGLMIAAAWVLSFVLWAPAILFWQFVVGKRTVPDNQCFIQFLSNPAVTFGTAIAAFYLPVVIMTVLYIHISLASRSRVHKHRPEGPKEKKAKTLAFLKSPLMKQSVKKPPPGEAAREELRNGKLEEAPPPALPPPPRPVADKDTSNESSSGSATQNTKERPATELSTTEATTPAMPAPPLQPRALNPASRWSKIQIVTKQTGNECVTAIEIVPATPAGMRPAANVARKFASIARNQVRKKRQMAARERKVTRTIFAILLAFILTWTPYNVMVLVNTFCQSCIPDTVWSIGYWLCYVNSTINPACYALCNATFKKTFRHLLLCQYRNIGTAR
Experimental: as §1, §2, §3, §4, §5, §6

[4] = biological target: T4, M3 muscarinic receptor (Homo sapiens, UniProt P20309); assay: Functional mobilization of intracellular calcium (FLIPR), M3-CHO cells; conditions: for Emax: 100% efficacy is the maximum response obtained with the Carbachol control; for M3 Activity: CHO cells expressing M3, calcium mobilization
T4 construct: expressed in transfected cells; host or cells: CHO (M3-CHO)
Experimental: as §1, §2, §3, §4, §5, §6

T4 sequence (P20309 whole entry): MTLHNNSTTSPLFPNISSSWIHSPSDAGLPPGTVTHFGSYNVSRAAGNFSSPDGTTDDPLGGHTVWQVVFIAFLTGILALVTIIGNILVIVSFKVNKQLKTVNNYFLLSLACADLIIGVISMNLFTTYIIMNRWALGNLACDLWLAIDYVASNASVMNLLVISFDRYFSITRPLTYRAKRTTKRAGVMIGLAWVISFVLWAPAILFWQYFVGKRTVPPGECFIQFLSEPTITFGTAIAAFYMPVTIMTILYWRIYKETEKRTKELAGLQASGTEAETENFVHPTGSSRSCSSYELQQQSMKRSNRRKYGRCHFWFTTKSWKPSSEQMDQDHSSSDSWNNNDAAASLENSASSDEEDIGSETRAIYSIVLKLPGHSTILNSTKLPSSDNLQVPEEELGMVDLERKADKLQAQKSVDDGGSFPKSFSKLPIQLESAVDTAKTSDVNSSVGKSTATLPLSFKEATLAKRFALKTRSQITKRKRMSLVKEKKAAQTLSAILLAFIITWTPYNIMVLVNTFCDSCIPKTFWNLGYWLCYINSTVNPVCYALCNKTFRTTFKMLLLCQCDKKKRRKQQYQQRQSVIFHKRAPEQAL

SMILES | Emax [1] | M1 Activity [1] | Emax [2] | M2 Activity [2] | Emax [3] | M4 Activity [3] | Emax [4] | M3 Activity [4]
O=C1Nc2ccccc2C2(CCN(CC3CCCOC3)CC2)O1 (stereo not shown) [Compound 11] | 25 to 100% | +++ (activity was measured to be less than 2.0 μM) | 25 to 100% | + (activity was measured to be greater than 5.0 μM) | 25 to 100% | +++ (activity was measured to be less than 2.0 μM) | < 25% | + (activity was measured to be greater than 5.0 μM)
O=C1Nc2ccccc2C2(CCN(C3CCCCCC3)CC2)O1 [Compound 5, 1′-cycloheptylspiro[benzo[d][1,3]oxazine-4,4′-piperidin]-2(1H)-one] | 25 to 100% | +++ (activity was measured to be less than 2.0 μM) | 25 to 100% | + (activity was measured to be greater than 5.0 μM) | 25 to 100% | +++ (activity was measured to be less than 2.0 μM) | < 25% | + (activity was measured to be greater than 5.0 μM)
O=C1Nc2ccccc2C2(CCN(C3CC4CCC(C4)C3)CC2)O1 (stereo not shown) [Compound 67, 1′-(bicyclo[3.2.1]octan-3-yl)spiro[benzo[d][1,3]oxazine-4,4′-piperidin]-2(1H)-one] | 25 to 100% | +++ (activity was measured to be less than 2.0 μM) | 25 to 100% | +++ (activity was measured to be less than 2.0 μM) | 25 to 100% | +++ (activity was measured to be less than 2.0 μM) | 25 to 100% | + (activity was measured to be greater than 5.0 μM)
O=C1Nc2ccccc2C2(CCN(C3CCN(c4cnccn4)CC3)CC2)O1 [Compound 74, 1′-(1-(pyrazin-2-yl)piperidin-4-yl)spiro[benzo[d][1,3]oxazine-4,4′piperidin]-2(1H)-one] | > 100% | +++ (activity was measured to be less than 2.0 μM) | 25 to 100% | +++ (activity was measured to be less than 2.0 μM) | 25 to 100% | +++ (activity was measured to be less than 2.0 μM) | 25 to 100% | + (activity was measured to be greater than 5.0 μM)
O=C1Nc2ccccc2C2(CCN(C3CCNCC3)CC2)O1 [Compound 49, 1′-(piperidin-4-yl)spiro[benzo[d][1,3]oxazine-4,4′-piperidin]-2(1H)-one] | 25 to 100% | + (activity was measured to be greater than 5.0 μM) | < 25% | + (activity was measured to be greater than 5.0 μM) | < 25% | + (activity was measured to be greater than 5.0 μM) | < 25% | + (activity was measured to be greater than 5.0 μM)
CC(C)CCN1CCC2(CC1)OC(=O)Nc1ccccc12 [Compound 76, 1′-isopentylspiro[benzo[d][1,3]oxazine-4,4′-piperidin]-2(1H)-one] | 25 to 100% | +++ (activity was measured to be less than 2.0 μM) | 25 to 100% | + (activity was measured to be greater than 5.0 μM) | 25 to 100% | +++ (activity was measured to be less than 2.0 μM) | < 25% | + (activity was measured to be greater than 5.0 μM)
O=C1CCC(N2CCC3(CC2)OC(=O)Nc2ccccc23)CC1 [Compound 64, 1′-(4-oxocyclohexyl)spiro[benzo[d][1,3]oxazine-4,4′-piperidin]-2(1H)-one] | 25 to 100% | ++ (activity was measured to be from 2.0 μM to 5.0 μM) | 25 to 100% | + (activity was measured to be greater than 5.0 μM) | 25 to 100% | ++ (activity was measured to be from 2.0 μM to 5.0 μM) | < 25% | + (activity was measured to be greater than 5.0 μM)
CCON=C1CCC(N2CCC3(CC2)OC(=O)Nc2ccccc23)CC1 (stereo not shown) [Compound 3, 1′-(4-(ethoxyimino)cyclohexyl)spiro[benzo[d][1,3]oxazine-4,4′-piperidin]-2(1H)-one] | 25 to 100% | +++ (activity was measured to be less than 2.0 μM) | 25 to 100% | +++ (activity was measured to be less than 2.0 μM) | 25 to 100% | +++ (activity was measured to be less than 2.0 μM) | 25 to 100% | +++ (activity was measured to be less than 2.0 μM)

Reference: US7696201B2, “Modulators of muscarinic receptors” (Vertex Pharmaceuticals Incorporated, priority 2006, dated 2010)
